How the values were obtained:
[1] = target: Human PARP1 (Homo sapiens (Human), UniProt P09874); assay: PARP1 autoparsylation assay (LC/MS detection of nicotinamide); assay type: biochemical; conditions: 20 nM enzyme, 250 μM β-NAD+, 60 min
Description: (§1) The autoparsylation activity of the TNKS 1/2 or PARP1/2 enzymes was measured by the liquid chromatography-mass spectrometry (LC/MS) detection of nicotinamide as readout. Compound activity in inhibiting the TNKS and PARP autoparsylation was evaluated by IC50 measurements.

[2] = target: PARP2 (Mus musculus (Mouse), UniProt O88554); assay: PARP2 autoparsylation assay (LC/MS detection of nicotinamide); assay type: biochemical; conditions: 20 nM enzyme, 250 μM β-NAD+, 60 min
Description: as §1

[3] = test system: Wnt ligand-induced signaling in HEK293 cells; assay: Wnt-responsive Super-TOpFlash (STF) luciferase reporter gene assay; assay type: cell-based; conditions: Homo sapiens, Wnt3A condition medium
In short: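 HEK293 cells (8000/well, 5% FBS medium) treated with 20% mouse L-cell Wnt3A conditioned medium plus compounds in 10-point serial dilution; luciferase read next day. Inhibition calculated relative to Wnt3A-induced signal without compound and background without Wnt3A CM or compound.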

[4] = test system: Axin2 protein in SW480 cells; assay: Cellular ELISA assay of Axin2 protein stabilization; assay type: cell-based; conditions: Homo sapiens, 24 hrs, read-out: Axin AC50
In short: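 SW480 colorectal cells seeded overnight, treated with compound, then lysed. Axin2 in lysates measured by sandwich ELISA: anti-Axin2 capture antibody coated at 1 μg/ml (pH 9.2), lysate 2 h at room temperature, biotinylated anti-Axin2 detection 2 h, then streptavidin-HRP 30 min.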

[5] = test system: Non-small lung cancer ABC-1 cells; assay: Cellular proliferation assay (CellTiter-Glo); assay type: cell-based; conditions: Homo sapiens, 72 h; ABC-1 cells, 3 days of compound treatment; read-out: ABC-1 IC50
Description: Cellular Proliferation Assay to Determine Compound Inhibition of Cancer Cell Growth
Viable cells were measured after 3 days of compound treatment using the CellTiter-Glo assay (Promega, G7570). Assay was performed following the manufacture protocol.

[6] = target: human tankyrase 1 PARP catalytic domain, TNKS1P (Homo sapiens (Human), UniProt O95271); assay: TNKS1 autoparsylation assay (LC/MS detection of nicotinamide); conditions: read-out: TNKS1 AP IC50, 20 nM enzyme, 250 μM β-NAD+, 60 min
Description: (§2) Biochemical Assay to Determine Compound Inhibition of TNKS Enzyme Activity
(§3) The autoparsylation activity of the TNKS 1/2 or PARP1/2 enzymes was measured by the liquid chromatography-mass spectrometry (LC/MS) detection of nicotinamide as readout. Compound activity in inhibiting the TNKS and PARP autoparsylation was evaluated by IC50 measurements. […] For the background control wells, 10 μL of the 5× quenching solution per well was added prior to the addition of β-NAD^+. The % Inhibition was calculated as: (Control−Sample)/(Control−Background)*100.

[7] = target: tankyrase 2 protein PARP domain, TNKS2P (Homo sapiens (Human), UniProt Q9H2K2); assay: TNKS2 autoparsylation assay (LC/MS detection of nicotinamide); conditions: read-out: TNKS2 AP IC50, 20 nM enzyme, 250 μM β-NAD+, 60 min
Sequence of tankyrase 2 protein PARP domain, TNKS2P (Q9H2K2 959-1164): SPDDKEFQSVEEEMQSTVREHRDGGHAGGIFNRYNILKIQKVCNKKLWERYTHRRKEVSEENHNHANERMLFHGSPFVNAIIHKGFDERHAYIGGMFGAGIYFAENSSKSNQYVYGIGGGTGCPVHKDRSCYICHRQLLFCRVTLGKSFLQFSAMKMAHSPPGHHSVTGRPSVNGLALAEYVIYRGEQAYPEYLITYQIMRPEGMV
Description: as §2, §3

Sequence of PARP2 (O88554 whole entry): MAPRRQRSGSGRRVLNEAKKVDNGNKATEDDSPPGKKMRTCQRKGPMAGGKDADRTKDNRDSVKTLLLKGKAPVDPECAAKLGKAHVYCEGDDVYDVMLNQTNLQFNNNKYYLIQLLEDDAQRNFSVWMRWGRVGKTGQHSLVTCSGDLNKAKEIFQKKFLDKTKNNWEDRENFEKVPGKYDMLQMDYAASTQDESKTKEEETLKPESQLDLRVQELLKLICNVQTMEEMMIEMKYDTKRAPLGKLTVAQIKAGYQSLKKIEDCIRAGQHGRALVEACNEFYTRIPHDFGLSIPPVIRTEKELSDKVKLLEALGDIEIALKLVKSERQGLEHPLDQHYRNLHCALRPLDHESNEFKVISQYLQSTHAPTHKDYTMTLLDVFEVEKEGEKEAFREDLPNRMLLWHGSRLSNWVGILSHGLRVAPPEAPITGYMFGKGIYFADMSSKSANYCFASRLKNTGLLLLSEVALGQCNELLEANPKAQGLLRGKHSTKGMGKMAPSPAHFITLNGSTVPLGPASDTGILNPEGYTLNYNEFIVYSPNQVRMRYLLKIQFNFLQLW
Sequence of Human PARP1 (P09874 whole entry): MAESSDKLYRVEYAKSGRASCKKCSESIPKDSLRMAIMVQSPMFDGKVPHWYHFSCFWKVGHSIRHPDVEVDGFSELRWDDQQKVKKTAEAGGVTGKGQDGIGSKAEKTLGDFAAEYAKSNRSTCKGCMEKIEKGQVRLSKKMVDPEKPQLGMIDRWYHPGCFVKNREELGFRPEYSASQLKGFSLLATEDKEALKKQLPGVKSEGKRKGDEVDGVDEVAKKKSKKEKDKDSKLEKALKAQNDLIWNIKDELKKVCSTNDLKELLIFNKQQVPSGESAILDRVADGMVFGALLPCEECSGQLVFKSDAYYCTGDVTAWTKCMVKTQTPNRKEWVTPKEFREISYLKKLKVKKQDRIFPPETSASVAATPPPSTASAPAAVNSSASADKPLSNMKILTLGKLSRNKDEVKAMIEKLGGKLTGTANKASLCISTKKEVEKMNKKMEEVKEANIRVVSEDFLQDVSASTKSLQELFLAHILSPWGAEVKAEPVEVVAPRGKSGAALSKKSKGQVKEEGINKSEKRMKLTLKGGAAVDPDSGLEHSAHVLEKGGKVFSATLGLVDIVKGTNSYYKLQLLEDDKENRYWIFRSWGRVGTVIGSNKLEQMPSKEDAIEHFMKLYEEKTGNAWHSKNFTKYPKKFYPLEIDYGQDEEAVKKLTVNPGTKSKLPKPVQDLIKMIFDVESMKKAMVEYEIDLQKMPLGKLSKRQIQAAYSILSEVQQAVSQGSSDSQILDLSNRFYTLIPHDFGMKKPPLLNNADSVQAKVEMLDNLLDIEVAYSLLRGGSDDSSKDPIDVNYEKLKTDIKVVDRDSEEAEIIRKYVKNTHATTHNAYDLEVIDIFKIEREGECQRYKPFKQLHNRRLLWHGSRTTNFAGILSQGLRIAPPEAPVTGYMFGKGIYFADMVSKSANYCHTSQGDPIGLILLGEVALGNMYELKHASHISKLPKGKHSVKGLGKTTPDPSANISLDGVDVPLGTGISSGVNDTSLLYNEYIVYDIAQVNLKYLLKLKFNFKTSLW
Sequence of human tankyrase 1 PARP catalytic domain, TNKS1P (O95271 1112-1317): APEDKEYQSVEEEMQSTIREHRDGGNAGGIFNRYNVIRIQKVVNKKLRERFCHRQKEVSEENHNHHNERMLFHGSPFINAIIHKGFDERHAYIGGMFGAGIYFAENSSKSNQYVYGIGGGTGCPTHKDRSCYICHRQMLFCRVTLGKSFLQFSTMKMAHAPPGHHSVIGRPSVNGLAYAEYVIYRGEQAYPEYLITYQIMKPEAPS

SMILES | IC50 [1] | IC50 [2] | IC50 [3] | AC50 [4] | IC50 [5] | IC50 [6] | IC50 [7]
O=C(c1ccc(F)cc1)C1CCN(CC(=O)N(CCF)Cc2nc3c(c(=O)[nH]2)COCC3)CC1 [Example 44, 2-[4-(4-Fluoro-benzoyl)-piperidin-1-yl]-N-(2-fluoro-ethyl)-N-(4-oxo-3,5,7,8-tetrahydro-4H-pyrano[4,3-d]pyrimidin-2-ylmethyl)-acetamide] | > 19000 nM | > 19000 nM | 1470 ± 360 nM | > 10000 nM | 6400 nM | 72 ± 1.4 nM | 19 ± 1.4 nM
O=C(c1ccc(F)cc1)C1CCN(CC(=O)N(Cc2nc3c(c(=O)[nH]2)COCC3)CC(F)F)CC1 [Example 45, N-(2,2-Difluoro-ethyl)-2-[4-(4-fluoro-benzoyl)-piperidin-1-yl]-N-(4-oxo-3,5,7,8-tetrahydro-4H-pyrano[4,3-d]pyrimidin-2-ylmethyl)-acetamide] | > 19000 nM | > 19000 nM | 16 ± 9 nM | 450 ± 90 nM | 509 ± 47 nM | 37 ± 17 nM | 10.2 ± 7.4 nM
O=C(c1ccc(F)cc1)C1CCN(CC(=O)N(Cc2nc3c(c(=O)[nH]2)COCC3)CC(F)(F)F)CC1 [Example 48, 2-[4-(4-Fluoro-benzoyl)-piperidin-1-yl]-N-(4-oxo-3,5,7,8-tetrahydro-4H-pyrano[4,3-d]pyrimidin-2-ylmethyl)-N-(2,2,2-trifluoro-ethyl)-acetamide] | > 19000 nM | > 19000 nM | 14 ± 6 nM | 610 ± 240 nM | 790 ± 180 nM | 55 ± 3 nM | 14 ± 1 nM
CC(c1cccs1)N(Cc1nc2c(c(=O)[nH]1)COCC2)C(=O)CN1CCC(C(=O)c2ccc(F)cc2)CC1 (centres unmarked) [Example 49, 2-[4-(4-Fluoro-benzoyl)-piperidin-1-yl]-N-(4-oxo-3,5,7,8-tetrahydro-4H-pyrano[4,3-d]pyrimidin-2-ylmethyl)-N-(1-thiophen-2-yl-ethyl)-acetamide] | > 19000 nM | > 19000 nM | 16 ± 4 nM | 86 ± 3 nM | 170 nM | 47.5 ± 3.5 nM | 16.5 ± 0.7 nM
COc1ccc(C(=O)C2CCN(CC(=O)N(Cc3nc4c(c(=O)[nH]3)COCC4)CC(F)F)CC2)cc1 [Example 50, N-(2,2-Difluoro-ethyl)-2-[4-(4-methoxy-benzoyl)-piperidin-1-yl]-N-(4-oxo-3,5,7,8-tetrahydro-4H-pyrano[4,3-d]pyrimidin-2-ylmethyl)-acetamide] | > 19000 nM | > 19000 nM | 9.5 ± 0.5 nM | 30 ± 6 nM | 45 nM | 18 ± 7 nM | 12 ± 1 nM
COCCN(Cc1nc2c(c(=O)[nH]1)COCC2)C(=O)CN1CCC(C(=O)c2ccc(OC)cc2)CC1 [Example 54, 2-[4-(4-Methoxy-benzoyl)-piperidin-1-yl]-N-(2-methoxy-ethyl)-N-(4-oxo-3,5,7,8-tetrahydro-4H-pyrano[4,3-d]pyrimidin-2-ylmethyl)-acetamide] | > 19000 nM | > 19000 nM | 91 ± 13 nM | 1200 ± 100 nM | 1840 nM | 35 ± 6 nM | 14 ± 3 nM
COc1ccc(C(=O)C2CCN(CC(=O)NCc3nc4c(c(=O)[nH]3)COCC4)CC2)cc1 [Example 67, 2-(4-(4-Methoxybenzoyl)piperidin-1-yl)-N-((4-oxo-4,5,7,8-tetrahydro-3H-pyrano[4,3-d]pyrimidin-2-yl)methyl)acetamide] | 10000 ± 3200 nM | 3640 ± 630 nM | 5.3 ± 4.1 nM | 16 ± 3 nM | 45 nM | 28 ± 6 nM | 12 ± 2 nM
O=C(c1ccc(OC(F)(F)F)cc1)C1CCN(CC(=O)N(Cc2nc3c(c(=O)[nH]2)COCC3)CC2CC2)CC1 [Example 70, N-Cyclopropylmethyl-N-(4-oxo-3,5,7,8-tetrahydro-4H-pyrano[4,3-c]pyrimidin-2-ylmethyl)-2-[4-(4-trifluoromethoxy-benzoyl)-piperidin-1-yl]-acetamide] | > 19000 nM | > 19000 nM | 8 ± 1.6 nM | 135 ± 7 nM | 392 nM | 37 ± 2 nM | 8 nM
O=C(c1ccc(OC(F)(F)F)cc1)C1CCN(CC(=O)N(Cc2nc3c(c(=O)[nH]2)COCC3)CC(F)F)CC1 [Example 71, N-(2,2-Difluoro-ethyl)-N-(4-oxo-3,5,7,8-tetrahydro-4H-pyrano[4,3-d]pyrimidin-2-ylmethyl)-2-[4-(4-trifluoromethoxy-benzoyl)-piperidin-1-yl]-acetamide] | > 19000 nM | 11760 ± 50 nM | 17.5 ± 6.6 nM | 58 ± 12 nM | 100 nM | 43 ± 1 nM | 15 ± 1 nM
CC#CCOc1ccc(C(=O)C2CCN(CC(=O)N(Cc3nc4c(c(=O)[nH]3)COCC4)CC3CC3)CC2)cc1 [Example 78, 2-[4-(4-But-2-ynyloxy-benzoyl)-piperidin-1-yl]-N-cyclopropylmethyl-N-(4-oxo-3,5,7,8-tetrahydro-4H-pyrano[4,3-d]pyrimidin-2-ylmethyl)-acetamide] | 14700 ± 4600 nM | > 19000 nM | 155 ± 8 nM | 1920 ± 240 nM | 2010 nM | 29 ± 2 nM | 15 ± 2 nM
Cc1ccc(C(=O)C2CCN(CC(=O)NCc3nc4c(c(=O)[nH]3)COCC4)CC2)cc1 [Example 83, 2-[4-(4-Methyl-benzoyl)-piperidin-1-yl]-N-(4-oxo-3,5,7,8-tetrahydro-4H-pyrano[4,3-d]pyrimidin-2-ylmethyl)-acetamide] | 8300 ± 3000 nM | 2300 ± 360 nM | > 10000 nM | > 10000 nM | > 10000 nM | 64 nM | 18 ± 2 nM
CCCOc1ccc(C(=O)C2CCN(CC(=O)NCc3nc4c(c(=O)[nH]3)COCC4)CC2)cc1 [Example 84, N-(4-Oxo-3,5,7,8-tetrahydro-4H-pyrano[4,3-d]pyrimidin-2-ylmethyl)2-[4-(4-propoxy-benzoyl)-piperidin-1-yl]acetamide] | 4800 ± 250 nM | 2130 ± 440 nM | 11 ± 3 nM | 162 ± 19 nM | 301 nM | 23 ± 5 nM | 13 ± 2 nM
O=C(CN1CCC(C(=O)c2ccc(OCC3CC3)cc2)CC1)NCc1nc2c(c(=O)[nH]1)COCC2 [Example 85, 2-[4-(4-Cyclopropylmethoxy-benzoyl)-piperidin-1-yl]-N-(4-oxo-3,5,7,8-tetrahydro-4H-pyrano[4,3-d]pyrimidin-2-ylmethyl)-acetamide] | 4500 ± 580 nM | 1970 ± 260 nM | 5.2 ± 0.1 nM | 15 ± 2 nM | 34 nM | 23 ± 2 nM | 10 ± 2 nM
O=C(CN1CCC(C(=O)c2ccc(OCC3CCC3)cc2)CC1)NCc1nc2c(c(=O)[nH]1)COCC2 [Example 86, 2-[4-(4-Cyclobutylmethoxy-benzoyl)-piperidin-1-yl]-N-(4-oxo-3,5,7,8-tetrahydro-4H-pyrano[4,3-d]pyrimidin-2-ylmethyl)-acetamide] | 2050 ± 370 nM | 885 ± 37 nM | 820 ± 410 nM | 29 ± 8 nM | 41 nM | 30 ± 3 nM | 12 ± 1 nM
O=C(CN1CCC(C(=O)c2ccc(OC3CCOCC3)cc2)CC1)NCc1nc2c(c(=O)[nH]1)COCC2 [Example 87, N-(4-Oxo-3,5,7,8-tetrahydro-4H-pyrano[4,3-d]pyrimidin-2-ylmethyl)-2-{4-[4-(tetrahydro-pyran-4-yloxy)-benzoyl]-1-yl}-acetamide] | 5800 ± 1300 nM | 2840 ± 330 nM | 14 ± 1 nM | 40 ± 6 nM | 32 nM | 67 ± 4 nM | 29 nM
COCCOc1ccc(C(=O)C2CCN(CC(=O)NCc3nc4c(c(=O)[nH]3)COCC4)CC2)cc1 [Example 88, 2-{4-[4-(2-Methoxy-ethoxy)-benzoyl]-piperidin-1-yl}-N-(4-oxo-3,5,7,8-tetrahydro-4H-pyrano[4,3-d]pyrimidin-2-ylmethyl)-acetamide] | 6800 ± 2000 nM | 2370 ± 520 nM | 21 ± 5 nM | 69 ± 7 nM | 87 nM | 26 ± 1 nM | 6 nM
O=C(CN1CCC(C(=O)c2ccc(OCCC3CC3)cc2)CC1)NCc1nc2c(c(=O)[nH]1)COCC2 [Example 89, 2-{4-[4-(2-Cyclopropyl-ethoxy)-benzoyl]-piperidin-1-yl}-N-(4-oxo-3,5,7,8-tetrahydro-4H-pyrano[4,3-d]pyrimidin-2-ylmethyl)-acetamide] | 1750 ± 20 nM | 920 ± 340 nM | 17 ± 4 nM | 52 ± 2 nM | 87 nM | 21 ± 2 nM | 12 ± 2 nM

Source: US9181266B2, “2-piperidin-1-yl-acetamide compounds for use as tankyrase inhibitors” (NOVARTIS AG, priority 2011, dated 2015)
